Measured values as given in ChEMBL document CHEMBL1201862, “PubChem BioAssay data set” (2004).
Activity calls are given as the source filed them.

Tests used:
cells [1] = type: functional, cell-based
Nonstructural protein 1 = Nonstructural protein 1 (Influenza A virus, UniProt Q194T2); type: functional, Influenza A virus (A/California/07/2009(H1N1))
Streptococcus = test: Group A Streptococcus viability loss, dose response, counter-screen for streptokinase expression inhibitor project, luminescence, BacTiterGlo (AID 1915); type: functional, organism-based;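 also: potency for reduction of bacterial viability or growth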
cells [2] = type: functional, cell-based; remark: listed apart in the source
[3] = target: T1, Histone-lysine N-methyltransferase NSD2 (Homo sapiens, UniProt O96028); type: biochemical
T1 sequence (O96028 whole entry): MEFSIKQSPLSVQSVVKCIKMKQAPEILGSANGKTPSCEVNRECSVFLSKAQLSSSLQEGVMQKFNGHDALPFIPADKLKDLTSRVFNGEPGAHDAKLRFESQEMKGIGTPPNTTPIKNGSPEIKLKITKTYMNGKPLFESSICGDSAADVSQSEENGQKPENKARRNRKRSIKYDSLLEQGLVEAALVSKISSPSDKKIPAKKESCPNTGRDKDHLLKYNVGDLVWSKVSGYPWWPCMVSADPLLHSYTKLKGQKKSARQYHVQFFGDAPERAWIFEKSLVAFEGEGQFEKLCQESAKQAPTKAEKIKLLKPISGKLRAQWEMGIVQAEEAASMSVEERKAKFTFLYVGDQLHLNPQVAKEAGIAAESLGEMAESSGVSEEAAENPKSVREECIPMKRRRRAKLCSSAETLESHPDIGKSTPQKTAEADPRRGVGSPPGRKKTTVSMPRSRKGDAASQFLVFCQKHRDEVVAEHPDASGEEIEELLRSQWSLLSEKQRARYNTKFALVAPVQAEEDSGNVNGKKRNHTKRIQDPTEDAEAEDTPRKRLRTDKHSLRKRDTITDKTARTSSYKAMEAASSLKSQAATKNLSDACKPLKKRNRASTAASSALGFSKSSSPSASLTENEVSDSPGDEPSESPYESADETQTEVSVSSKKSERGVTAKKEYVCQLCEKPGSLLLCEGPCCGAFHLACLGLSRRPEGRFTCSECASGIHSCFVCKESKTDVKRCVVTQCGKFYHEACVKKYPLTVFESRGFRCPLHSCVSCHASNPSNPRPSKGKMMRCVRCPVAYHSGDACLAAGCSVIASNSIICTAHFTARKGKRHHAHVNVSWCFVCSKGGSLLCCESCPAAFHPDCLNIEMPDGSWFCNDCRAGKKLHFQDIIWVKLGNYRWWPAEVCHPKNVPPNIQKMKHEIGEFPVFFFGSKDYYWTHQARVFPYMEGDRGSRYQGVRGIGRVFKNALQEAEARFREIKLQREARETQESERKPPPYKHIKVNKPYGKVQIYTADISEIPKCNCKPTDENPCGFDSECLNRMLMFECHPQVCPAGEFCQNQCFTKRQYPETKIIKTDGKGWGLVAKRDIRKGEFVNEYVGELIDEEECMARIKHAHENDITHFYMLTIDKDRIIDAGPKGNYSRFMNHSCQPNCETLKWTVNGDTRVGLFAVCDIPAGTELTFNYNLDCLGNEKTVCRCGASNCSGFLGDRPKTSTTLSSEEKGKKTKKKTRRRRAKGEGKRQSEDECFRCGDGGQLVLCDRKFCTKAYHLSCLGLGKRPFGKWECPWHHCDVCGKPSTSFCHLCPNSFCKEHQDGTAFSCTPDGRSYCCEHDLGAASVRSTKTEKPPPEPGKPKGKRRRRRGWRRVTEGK

Vero = test: cells; type: functional; settings: Chlorocebus sabaeus
[4] = NIH-3T3 fibroblast cytotoxicity, dose response, cytotoxicity control, cell-based, fluorescence, Alamar Blue, secondary assay (AID 2327); type: functional;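 also: NIH-3T3 mouse fibroblasts cultured with fluconazole at 8 µg/mL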
Caspase-6 = target: T2, Caspase-6 (Homo sapiens, UniProt P55212); test: human caspase-6 inhibitors, dose response, biochemical, VEID-R110 fluorescence, cherry-pick (AID 720632)
T2 sequence (P55212 whole entry): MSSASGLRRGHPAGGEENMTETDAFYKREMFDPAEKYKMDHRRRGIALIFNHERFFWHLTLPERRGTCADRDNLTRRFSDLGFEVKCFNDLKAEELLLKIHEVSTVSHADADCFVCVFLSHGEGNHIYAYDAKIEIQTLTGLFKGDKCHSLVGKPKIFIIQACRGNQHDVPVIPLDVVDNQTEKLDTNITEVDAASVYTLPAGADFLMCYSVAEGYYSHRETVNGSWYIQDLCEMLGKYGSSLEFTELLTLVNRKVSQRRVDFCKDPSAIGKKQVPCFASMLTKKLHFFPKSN

[5] = C. albicans growth with fluconazole, confirmation, fluorescence, retest (AID 2467); type: functional, cell-based
[6] = target: T3, Heat shock factor protein 1 (Mus musculus, UniProt P38532); test: inhibition of MG132-induced HSE-luciferase signal, confirmation, cell-based, NIH3T3, luminescence, dose retest (AID 2382); type: functional;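 also: NIH3T3 fibroblasts with HSF1-driven luciferase reporter stressed by proteasome inhibitor MG132; luminescence from HSF1-driven luciferase expression after 8 hours of MG132 stress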
T3 sequence (P38532 whole entry): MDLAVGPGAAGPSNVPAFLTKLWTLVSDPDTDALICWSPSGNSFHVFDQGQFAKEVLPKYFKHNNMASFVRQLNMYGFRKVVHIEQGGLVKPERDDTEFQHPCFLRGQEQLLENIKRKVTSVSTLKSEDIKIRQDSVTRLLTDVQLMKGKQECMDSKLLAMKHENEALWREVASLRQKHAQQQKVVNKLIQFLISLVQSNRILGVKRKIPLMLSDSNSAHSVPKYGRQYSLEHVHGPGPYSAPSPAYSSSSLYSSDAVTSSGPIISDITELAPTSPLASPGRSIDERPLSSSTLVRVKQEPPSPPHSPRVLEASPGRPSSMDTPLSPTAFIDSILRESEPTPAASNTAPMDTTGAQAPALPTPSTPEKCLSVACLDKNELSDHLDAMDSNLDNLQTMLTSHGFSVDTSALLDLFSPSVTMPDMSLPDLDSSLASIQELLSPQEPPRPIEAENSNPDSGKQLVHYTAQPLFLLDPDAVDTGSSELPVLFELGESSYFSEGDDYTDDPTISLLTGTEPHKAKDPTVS

[7] = system: Streptococcus sp. 'group A'; test: growth inhibition of control SK(-) GAS strain, dose response, counter-screen for streptokinase expression inhibitor project, luminescence, kanamycin, BacTiterGlo, confirmation (AID 1900); type: functional, organism-based
[8] = target: Heat shock protein HSP 90-alpha (Homo sapiens, UniProt P07900); type: functional, organism-based
Protein Tat = target: T4, Protein Tat (Human immunodeficiency virus type 1 group M subtype B (isolate HXB2)(HIV-1), UniProt P04608); type: functional;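 also: tat binding to TAR RNA read out by fluorescence polarization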
T4 sequence (P04608 whole entry): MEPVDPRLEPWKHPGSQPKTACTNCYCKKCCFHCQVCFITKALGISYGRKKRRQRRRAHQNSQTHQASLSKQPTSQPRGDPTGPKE

[9] = inhibitors of PGC1a acetylation in cells, dose response, cell-based, cherry-picked samples (AID 720514); type: functional;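 also: potency may reflect raised or lowered acetylation signal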
[10] = HEK293T cytotoxicity, dose response, cytotoxicity control for miR-122 modulator project, cell-based, inhibitor set, cherry-pick, set 2 (AID 720697); type: functional
[11] = miR-122 activators in hepatoma reporter cells, dose response, cell-based, Huh7 psiCHECK-miR122, Renilla luciferase, cherry-picked (AID 651956); type: functional;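 also: huh7 hepatoma cells stably carrying a psiCHECK-2 miR-122 sensor plasmid; renilla luciferase signal reporting endogenous miR-122 activity after 48 h compound exposure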
[12] = ZM109 Env clade C HIV-1 fusion inhibitors, dose response, HeLa effector, CEM target cells, luciferase, cherry-pick (AID 652058); type: functional, cell-based
[13] = CEM21 lymphoblast cell cytotoxicity, dose response, cytotoxicity control for viral fusion inhibitor project, CellTiter-Glo luminescence, cherry-picked (AID 652042); type: functional, cell-based;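 also: potency for signal decrease meaning cytotoxicity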
[14] = inhibitors of HIV Env-driven cell fusion, dose response, cherry-pick (AID 652057); type: functional, cell-based
[15] = T. cruzi growth inhibition in host cells, dose response, cell-based, plate reader, dry powder, set 2 (AID 652275); type: functional
SN12K1 = test: cells; type: functional; settings: Homo sapiens
P388/ADR = test: cells; type: functional; settings: Mus musculus
P388 = test: cells; type: functional; settings: Mus musculus
[16] = Shn3 3'UTR reporter inhibitors, dose response, cell-based, Clone20 osteoblasts, firefly luciferase, cherry-picked (AID 624132); type: functional;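 also: firefly luciferase luminescence from reporter carrying the Shn3 3'UTR in osteoblasts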
[17] = LGR2 antagonists, dose response, cell-based, HEK293, CRE-luciferase reporter, cherry pick, set 2 (AID 743343); type: functional;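 also: transfected cells were stimulated with diluted bursicon conditioned medium after compound addition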
[18] = target: T5, Rac GTPase-activating protein 1 (Homo sapiens, UniProt Q9H0H5); test: MgcRacGAP GTPase-activating activity inhibitors, confirmation, biochemical, ADP Hunter fluorescence, primary and confirmatory (AID 624330); type: functional
T5 sequence (Q9H0H5 whole entry): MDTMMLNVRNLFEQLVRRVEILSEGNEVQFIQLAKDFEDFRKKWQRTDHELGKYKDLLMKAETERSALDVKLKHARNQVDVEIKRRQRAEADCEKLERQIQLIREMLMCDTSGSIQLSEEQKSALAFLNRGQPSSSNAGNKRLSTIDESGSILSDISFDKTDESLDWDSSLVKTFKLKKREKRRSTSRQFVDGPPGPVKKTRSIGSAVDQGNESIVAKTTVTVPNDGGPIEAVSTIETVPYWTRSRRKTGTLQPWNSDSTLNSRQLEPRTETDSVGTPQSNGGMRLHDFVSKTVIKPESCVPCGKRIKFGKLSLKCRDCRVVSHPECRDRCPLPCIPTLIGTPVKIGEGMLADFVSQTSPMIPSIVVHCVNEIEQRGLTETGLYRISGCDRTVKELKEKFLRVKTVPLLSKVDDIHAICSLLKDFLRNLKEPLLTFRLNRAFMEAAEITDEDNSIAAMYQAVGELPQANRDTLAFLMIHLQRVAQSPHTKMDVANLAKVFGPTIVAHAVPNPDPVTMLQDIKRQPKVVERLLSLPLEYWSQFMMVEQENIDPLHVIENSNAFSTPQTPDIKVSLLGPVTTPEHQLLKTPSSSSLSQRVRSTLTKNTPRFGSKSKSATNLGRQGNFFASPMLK

[19] = HepG2 cell cytotoxicity, dose response, cytotoxicity control, plate reader, cherry-pick, antagonist series (AID 743416); type: functional, cell-based
[20] = HeLa cell cytotoxicity, dose response, cytotoxicity control for MgcRacGAP inhibitor project (AID 624300); type: functional
[21] = HepG2 cell cytotoxicity, dose response, cytotoxicity control for Shn3 inhibitor project, CellTiter-Glo, cherry-picked (AID 624134); type: functional, cell-based
[22] = Fluorescence-based cell-based high throughput dose response assay for inhibitors of the interaction of nucleotide-binding oligomerization domain containing 2 (NOD2) and the receptor-interacting serine-threonine kinase 2 (RIPK2).; type: functional, Homo sapiens; settings: Homo sapiens
[23] = HEK293 cell cytotoxicity, dose response, cytotoxicity control, plate reader, cherry-picked samples (AID 743446); type: functional, cell-based
Paired box protein Pax-8 = Paired box protein Pax-8 (Homo sapiens, UniProt Q06710); test: inhibitors of PAX8-driven TPO luciferase reporter, dose response, RMG-I cells, cherry-pick (AID 687027); type: functional, cell-based;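 also: luciferase reporter driven by Pax8 target thyroperoxidase promoter measured by SteadyGlo luminescence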
Paired box protein Pax-8, sequence (Q06710 whole entry): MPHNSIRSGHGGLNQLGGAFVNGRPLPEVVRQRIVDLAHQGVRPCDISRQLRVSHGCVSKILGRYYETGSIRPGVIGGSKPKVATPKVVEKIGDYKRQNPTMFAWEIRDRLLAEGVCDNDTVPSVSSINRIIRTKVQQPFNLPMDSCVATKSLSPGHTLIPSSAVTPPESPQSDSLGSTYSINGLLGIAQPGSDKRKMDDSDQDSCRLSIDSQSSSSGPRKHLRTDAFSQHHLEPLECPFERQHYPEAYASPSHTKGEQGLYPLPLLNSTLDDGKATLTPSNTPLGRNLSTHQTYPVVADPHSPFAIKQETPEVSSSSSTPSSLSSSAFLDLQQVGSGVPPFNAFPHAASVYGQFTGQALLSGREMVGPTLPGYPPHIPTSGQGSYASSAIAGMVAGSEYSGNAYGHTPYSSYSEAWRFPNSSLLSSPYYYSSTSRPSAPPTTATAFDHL

[24] = control 3'UTR Renilla luciferase suppression, dose response, counter-screen for Shn3 inhibitor project, cell-based, Clone20-Shn3RL, cherry-picked (AID 624133); type: functional
[25] = MC4R antagonists, dose response, counter-screen for LGR2 antagonist project, cell-based, plate reader, cherry pick (AID 743444); type: functional;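 also: transfected HEK 293 cells stimulated with alpha-MSH peptide; potency of inhibitors of the alpha-MSH evoked signal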
[26] = A549 cell cytotoxicity, dose response, cytotoxicity control, plate reader, cherry-pick, antagonist series (AID 743412); type: functional, cell-based

Nonstructural protein 1, sequence (Q194T2 whole entry): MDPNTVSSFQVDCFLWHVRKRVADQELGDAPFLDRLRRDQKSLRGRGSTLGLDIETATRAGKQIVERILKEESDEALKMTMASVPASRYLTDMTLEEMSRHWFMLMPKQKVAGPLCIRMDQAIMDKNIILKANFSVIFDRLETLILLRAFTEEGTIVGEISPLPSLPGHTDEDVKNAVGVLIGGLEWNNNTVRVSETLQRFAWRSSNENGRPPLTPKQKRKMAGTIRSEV

COc1ccccc1N=Nc1ccc(O)c2ncccc12
EC50 (cells [1]): 102 µM (active) | IC50 (Nonstructural protein 1): 12.4 µM (active) | EC50 (Streptococcus): 10.3 µM (active) | EC50 (cells [2]): 38.7 µM (active) | AC50 [3]: 11.8 µM (active) | CC50 (Vero): 12.2 µM (active) | EC50 [4]: > 160 µM (inactive) | AC50 (Caspase-6): 34.5 µM (active) | EC50 [5]: 1.28 µM (active) | EC50 [6]: 2.29 µM (active) | EC50 [7]: 1.17 µM (active) | AC50 [8]: 3.68 µM (active)

[O-][n+]1c2c([n+]([O-])c3cc(Br)ccc31)CCC2
IC50 (Protein Tat): 8.44 µM (inconclusive)

CCOc1ccc2[nH]c(=O)c(CN(Cc3ccco3)C(=O)c3ccc(Br)cc3)cc2c1
IC50 (Protein Tat): > 100 µM (active)

O=C(CSc1nc2cc(Cl)ccc2s1)NCC1CCCO1 (stereo unspecified)
AC50 [9]: 30.5 µM (active)

C[C@@H]1CCCCO[C@H](CN(C)CC2CCCCC2)[C@H](C)CN([C@H](C)CO)C(=O)c2cc(NC(=O)Nc3ccc4c(c3)OCO4)ccc2O1
AC50 [10]: 4.39 µM (active) | AC50 [11]: 16.2 µM (active)

CCOC(=O)[C@]12CCC=C1N(Cc1ccc3c(c1)OCO3)C(=O)[C@H](CC(=O)NCC13CC4CC(CC(C4)C1)C3)C2
AC50 [12]: 22.7 µM (active) | AC50 [13]: 34 µM (active) | AC50 [14]: 16.5 µM (active)

C[C@H]1CN([C@@H](C)CO)C(=O)c2cccc(NC(=O)c3ccncc3)c2O[C@@H]1CN(C)Cc1ccc(Cl)cc1
AC50 [15]: 0.00712 µM (active)

CC(C)(C)[S+]([O-])N1Cc2cc(C(=O)NCc3ccc4c(c3)OCO4)nc(-c3cccc(C#CCC4CCCC4)c3)c2[C@H]1CCO (stereo partly specified)
AC50 [15]: 1.01 µM (active)

COc1cccc(CN2C[C@@H]3N[C@H](C2)[C@@H]3c2ccc(-c3ccccc3OC)cc2)c1
AC50 [9]: 28.5 µM (active)

CC(C)(C)[S@+]([O-])N1Cc2cc(C(=O)NCc3ccc4c(c3)OCO4)nc(-c3cccc(-c4ccncc4)c3)c2[C@@H]1CCO
AC50 [15]: 0.152 µM (active)

COC1C(O)C(C)OC(OC2C(Oc3cccc4c(O)c5c(=O)oc6ccc(C)c7c(=O)oc(c34)c5c67)OC(C)C(O)C2O)C1O (stereo unspecified)
GI50 (SN12K1): 0.593 µM (active) | GI50 (P388/ADR): 7.08 µM (inactive) | AC50 [3]: > 20 µM (inactive) | GI50 (P388): 0.598 µM (active)

CCC1CN2CCc3cc(OC)c(OC)cc3C2CC1CC1NCCc2c1[nH]c1ccc(O)cc21 (stereo unspecified)
AC50 [16]: < 0.26 µM (active) | AC50 [17]: 0.219 µM (active) | IC50 [18]: 70.2 µM (active) | AC50 [19]: 0.601 µM (active) | CC50 [20]: 1.61 µM (active) | AC50 [21]: 18 µM (active) | IC50 [22]: 49.8 µM (inactive) | AC50 [9]: 0.471 µM (active) | AC50 [23]: 0.153 µM (active) | AC50 (Paired box protein Pax-8): < 0.26 µM (active) | AC50 [24]: 0.658 µM (active) | AC50 [25]: 0.209 µM (active) | AC50 [26]: 0.075 µM (active)
